Data as given in ChEMBL document CHEMBL4138209, “Inhibitory effects and structural insights for a novel series of coumarin-based compounds that selectively target human CA IX and CA XII carbonic anhydrases” (Eur J Med Chem, 2018).

Assays:
[1] = molecular target: Carbonic anhydrase 1 (Homo sapiens, UniProt P00915); experiment: Inhibition of human carbonic anhydrase 1 incubated for 15 mins prior to testing by stopped-flow CO2 hydration assay
[2] = molecular target: Carbonic anhydrase 2 (Homo sapiens, UniProt P00918); experiment: Inhibition of human carbonic anhydrase 2 incubated for 15 mins prior to testing by stopped-flow CO2 hydration assay
[3] = molecular target: Carbonic anhydrase 9 (Homo sapiens, UniProt Q16790); experiment: Inhibition of human carbonic anhydrase 9 incubated for 15 mins prior to testing by stopped-flow CO2 hydration assay
[4] = molecular target: Carbonic anhydrase 12 (Homo sapiens, UniProt O43570); experiment: Inhibition of human carbonic anhydrase 12 incubated for 15 mins prior to testing by stopped-flow CO2 hydration assay
Carbonic anhydrase 12, sequence (O43570 whole entry): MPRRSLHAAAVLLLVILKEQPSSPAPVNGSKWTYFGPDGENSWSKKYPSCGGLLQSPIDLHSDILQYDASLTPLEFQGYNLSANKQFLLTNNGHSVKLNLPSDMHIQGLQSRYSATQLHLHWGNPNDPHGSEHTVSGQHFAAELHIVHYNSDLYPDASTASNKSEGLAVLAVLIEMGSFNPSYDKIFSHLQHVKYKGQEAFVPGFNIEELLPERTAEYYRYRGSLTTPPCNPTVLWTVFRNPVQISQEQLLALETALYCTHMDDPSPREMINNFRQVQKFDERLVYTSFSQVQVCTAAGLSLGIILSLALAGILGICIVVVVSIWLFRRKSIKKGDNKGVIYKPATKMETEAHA

Carbonic anhydrase 1, sequence (P00915 whole entry): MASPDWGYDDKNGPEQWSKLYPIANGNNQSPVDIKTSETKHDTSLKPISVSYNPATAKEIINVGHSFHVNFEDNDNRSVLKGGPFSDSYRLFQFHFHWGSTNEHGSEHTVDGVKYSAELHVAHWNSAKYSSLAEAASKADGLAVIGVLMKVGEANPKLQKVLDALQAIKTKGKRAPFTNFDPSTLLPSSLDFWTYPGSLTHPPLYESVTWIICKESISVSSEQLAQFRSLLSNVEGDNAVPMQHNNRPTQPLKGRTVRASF

Structure (SMILES) | Ki [1] [nM] | Ki [2] [nM] | Ki [3] [nM] | Ki [4] [nM]
Cc1c(O)ccc2c(-c3ccccc3)cc(=O)oc12 | > 10000 | > 10000 | 39.5 | 402
O=c1cc(-c2ccc([N+](=O)[O-])cc2)c2ccc(O)cc2o1 | > 10000 | > 10000 | 20.3 | 6.5
O=C(Oc1ccc2ccc(=O)oc2c1)c1ccccc1 | > 10000 | > 10000 | 51.4 | 814
O=c1cc(-c2ccccc2F)c2ccc(O)cc2o1 | > 10000 | > 10000 | 31.8 | 
CC(=O)Oc1ccc2oc(=O)ccc2c1 | > 10000 | > 10000 | 23.1 | 
O=c1cc(-c2ccccc2)c2ccc(O)cc2o1 | > 10000 | > 10000 | 47.2 | 90.8
CC(=O)Oc1cc2ccc(=O)oc2cc1OC(C)=O | > 10000 | > 10000 | 116 | 
O=C(Oc1cc2ccc(=O)oc2cc1OC(=O)c1ccccc1)c1ccccc1 | > 10000 | > 10000 | 38.4 | 
O=c1cc(-c2cccc(Cl)c2)c2ccc(O)cc2o1 | > 10000 | > 10000 | 31 | 
Cc1cccc(-c2cc(=O)oc3cc(O)ccc23)c1 | > 10000 | > 10000 | 17 | 
Cc1cccc(-c2cc(=O)oc3c(C)c(O)ccc23)c1 | > 10000 | > 10000 | 37.4 | 
Nc1ccc(-c2cc(=O)oc3cc(O)ccc23)cc1 | > 10000 | > 10000 | 21.6 | 
Cc1c(O)ccc2c(-c3cccc(Cl)c3)cc(=O)oc12 | > 10000 | > 10000 | 36.6 | 
Cc1c(O)ccc2c(-c3ccc([N+](=O)[O-])cc3)cc(=O)oc12 | > 10000 | > 10000 | 30.9 | 
Cc1c(O)ccc2c(-c3ccccc3F)cc(=O)oc12 | > 10000 | > 10000 | 95.9 | 
Cc1ccc(-c2cc(=O)oc3c(C)c(O)ccc23)cc1 | > 10000 | > 10000 | 38.2 | 
O=c1cc(-c2ccc(Cl)cc2)c2ccc(O)cc2o1 | > 10000 | > 10000 | 31.5 | 
O=C(Oc1ccc2oc(=O)ccc2c1)c1ccccc1 | > 10000 | > 10000 | 29.9 | 
Cc1ccc(-c2cc(=O)oc3cc(O)ccc23)cc1 | > 10000 | > 10000 | 35.8 | 
Cc1c(O)ccc2c(-c3ccc(N)cc3)cc(=O)oc12 | > 10000 | > 10000 |  | 
Cc1c(O)ccc2c(-c3ccccc3Cl)cc(=O)oc12 | > 10000 | > 10000 | 27.5 | 
O=c1cc(-c2ccccc2Cl)c2ccc(O)cc2o1 | > 10000 | > 10000 | 30.8 | 
Cc1c(O)ccc2c(-c3ccc(Cl)cc3)cc(=O)oc12 | > 10000 | > 10000 | 35.3 | 
O=c1ccc2cc(O)ccc2o1 [6-HYDROXYCOUMARIN] | > 10000 | > 10000 | 30.5 | 33.9
CC(=O)Oc1ccc2ccc(=O)oc2c1 [7-ACETOXYCOUMARIN] | > 10000 | > 10000 | 40.2 | 573
O=c1ccc2cc(O)c(O)cc2o1 [ESCULETIN] | > 10000 | > 10000 | 36.4 | 9.3
